Columns and labels:
Format in all cases: biochemical
JAK2 = target: T1, JAK2 (Homo sapiens, UniProt O60674); experiment: Inhibition of JAK2 kinase, LANCE Ultra TR-FRET assay; settings: 2x ATP 24 μM, 15 min pre-incubation, 90 min reaction, 23° C.
T1 construct: purchased Invitrogen PV4210
Method: (§1) Exemplary compounds were assayed to determine potency in inhibiting activity of JAK1-3 and TYK2 kinases by determining IC50 values.
(§2) The sources of test materials and equipment are as follows: JAK1 (Invitrogen, Cat. No PV4775), JAK2 (Invitrogen, Cat. No PV4210), JAK3 (Invitrogen, Cat. No PV4080), TYK2 (Invitrogen, Cat. No PR8440C), ATP (Sigma, Cat. No. A7699-1G), DMSO (Sigma, Cat. No. D2650), DTT (Sigma, Cat. No. 43815), 384 wells_compound plate (Greiner, Cat. No. 781280), 384 wells_assay plate (Perkin Elmer, Cat. No. 6007299), LANCE Ultra ULight™-JAK-1 peptide (Perkin Elmer, Cat. No. TRF0121), LANCET™ Eu-W1024 Anti-phosphotyrosine (PT66) (Perkin Elmer, Cat. No. AD0069), LANCET™ Detection Buffer(Perkin Elmer, Cat. No. CR97-100).
(§3) The concentrations of test compounds varied from 100 μM to 1.7 nM with 3-fold dilution, 11 points, in duplicates while the concentrations of the reference compound, Tofacitinib, varied from 1 μM to 0.017 nM with 3-fold dilution, 11 points, in duplicates.
(§4) The assay buffer contained 50 mM HEPES (pH 7.5), 0.01% Brij-35, 10 mM MgCl2, 1 mM EDTA, 2 mM DTT. Incubations were carried out at 23° C.
(§5) Prior to the assay, enzyme, peptide substrate and serially diluted test compounds were pre-incubated together in assay buffer (5 μL) for 15 minutes (peptide substrate concentration: 50 nM; JAK enzyme concentrations: 2 nM JAK1; […]; […] and 4 nM TYK2). And the assay was initiated by the addition of 5 μL assay buffer containing 2× final ATP concentration (these are the 2×ATP concentrations: 76 μM JAK1; 24 μM JAK2; 8 μM JAK3 and 30 μM TYK2). Following the 90-minute incubation, antibody conjugated with Eu is dissolved in detection buffer to add into wells and then incubated for 60 minutes. The 10 μL detection buffer contains EDTA to stop the enzymatic reaction. The plate is analyzed by Perkin Elmer Envision on TR-FRET mode. The high ratio of 665/615 represents no inhibition of kinase reaction while the low ratio of 665/615 represents complete inhibition of kinase reaction.
(§6) Curves are fit by XLFIT5 as inhibition rate % vs. log [compound concentration] using 4 parameters logistic model 205.
(§7) In the table, “A” indicates an IC50 of less than 100 nM, “B” indicates an IC50 range from 100 nM to 500 nM; “C” indicates an IC50 range from 500 nM to 2 μM; and “D” indicates an IC50 greater than 2 μM. Also, “na” indicates data is not available.

JAK3 = target: T2, JAK3 (Homo sapiens, UniProt P52333); experiment: Inhibition of JAK3 kinase, LANCE Ultra TR-FRET assay; settings: 2x ATP 8 μM, 15 min pre-incubation, 90 min reaction, 23° C.
T2 construct: purchased Invitrogen PV4080
T2 sequence (P52333 1-1124): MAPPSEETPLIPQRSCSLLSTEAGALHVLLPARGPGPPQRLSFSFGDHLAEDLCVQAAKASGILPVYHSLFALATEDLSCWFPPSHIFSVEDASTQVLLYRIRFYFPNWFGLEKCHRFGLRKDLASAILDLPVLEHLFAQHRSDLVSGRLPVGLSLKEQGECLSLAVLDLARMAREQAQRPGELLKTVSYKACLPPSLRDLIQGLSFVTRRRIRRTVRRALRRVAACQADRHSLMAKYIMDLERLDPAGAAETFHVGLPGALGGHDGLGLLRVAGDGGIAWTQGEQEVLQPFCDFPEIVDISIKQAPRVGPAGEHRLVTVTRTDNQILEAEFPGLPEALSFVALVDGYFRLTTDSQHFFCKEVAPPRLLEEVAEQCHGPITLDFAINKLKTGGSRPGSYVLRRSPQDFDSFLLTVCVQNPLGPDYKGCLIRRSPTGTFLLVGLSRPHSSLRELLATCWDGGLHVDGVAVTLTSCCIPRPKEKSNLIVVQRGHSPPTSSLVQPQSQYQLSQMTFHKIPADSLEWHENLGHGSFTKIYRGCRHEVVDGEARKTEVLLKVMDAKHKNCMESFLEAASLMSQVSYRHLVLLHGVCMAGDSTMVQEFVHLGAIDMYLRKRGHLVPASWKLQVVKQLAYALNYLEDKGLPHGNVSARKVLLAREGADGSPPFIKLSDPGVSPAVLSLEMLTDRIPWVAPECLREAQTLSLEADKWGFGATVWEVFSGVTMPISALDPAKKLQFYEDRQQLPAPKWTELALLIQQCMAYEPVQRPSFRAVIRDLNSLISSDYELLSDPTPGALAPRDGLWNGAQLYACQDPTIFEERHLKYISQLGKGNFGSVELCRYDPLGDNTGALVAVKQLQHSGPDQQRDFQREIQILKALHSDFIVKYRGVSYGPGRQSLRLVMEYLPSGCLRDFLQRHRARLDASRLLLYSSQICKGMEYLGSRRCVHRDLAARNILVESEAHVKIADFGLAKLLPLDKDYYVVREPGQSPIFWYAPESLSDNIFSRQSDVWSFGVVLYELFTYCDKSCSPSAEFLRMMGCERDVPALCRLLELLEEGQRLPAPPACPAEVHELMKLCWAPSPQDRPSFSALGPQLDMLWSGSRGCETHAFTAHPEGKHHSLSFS
Method: as §1, §2, §3, §4, §5, §6, §7

JAK1 = target: T3, JAK1 (Homo sapiens, UniProt P23458); experiment: Inhibition of JAK1 kinase, LANCE Ultra TR-FRET assay; settings: 2 nM JAK1, 2x ATP 76 μM, 15 min pre-incubation, 90 min reaction, 23° C.
T3 construct: purchased Invitrogen PV4775
T3 sequence (P23458 whole entry): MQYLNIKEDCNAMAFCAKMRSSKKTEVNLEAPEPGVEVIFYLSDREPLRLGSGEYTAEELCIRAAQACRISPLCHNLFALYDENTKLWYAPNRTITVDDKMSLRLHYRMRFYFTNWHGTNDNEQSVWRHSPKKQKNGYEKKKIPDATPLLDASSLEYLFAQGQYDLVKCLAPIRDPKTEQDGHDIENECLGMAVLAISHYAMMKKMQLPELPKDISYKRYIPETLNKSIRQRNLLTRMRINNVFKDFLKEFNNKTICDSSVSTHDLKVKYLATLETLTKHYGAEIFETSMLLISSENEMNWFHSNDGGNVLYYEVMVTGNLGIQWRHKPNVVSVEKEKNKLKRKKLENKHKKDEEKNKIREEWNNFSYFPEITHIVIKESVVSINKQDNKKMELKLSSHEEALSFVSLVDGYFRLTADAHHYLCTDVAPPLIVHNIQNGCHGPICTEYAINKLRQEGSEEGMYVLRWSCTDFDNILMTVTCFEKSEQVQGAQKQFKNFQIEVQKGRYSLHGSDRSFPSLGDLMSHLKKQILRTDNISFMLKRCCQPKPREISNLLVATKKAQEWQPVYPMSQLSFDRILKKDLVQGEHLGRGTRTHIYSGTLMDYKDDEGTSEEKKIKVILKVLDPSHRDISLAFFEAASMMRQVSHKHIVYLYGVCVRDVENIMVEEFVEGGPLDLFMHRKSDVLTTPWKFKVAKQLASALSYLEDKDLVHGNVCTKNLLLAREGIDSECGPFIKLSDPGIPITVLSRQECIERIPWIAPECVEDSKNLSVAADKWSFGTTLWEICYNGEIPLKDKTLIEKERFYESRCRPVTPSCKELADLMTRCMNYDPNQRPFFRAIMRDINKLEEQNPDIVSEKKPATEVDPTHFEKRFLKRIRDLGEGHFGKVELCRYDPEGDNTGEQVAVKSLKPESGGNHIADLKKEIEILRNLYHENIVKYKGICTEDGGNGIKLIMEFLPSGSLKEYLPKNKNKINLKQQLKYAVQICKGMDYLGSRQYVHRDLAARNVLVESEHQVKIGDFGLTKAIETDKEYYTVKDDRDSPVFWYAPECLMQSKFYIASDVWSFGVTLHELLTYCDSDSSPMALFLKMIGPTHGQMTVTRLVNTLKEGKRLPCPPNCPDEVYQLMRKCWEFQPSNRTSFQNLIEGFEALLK
Method: as §1, §2, §3, §4, §5, §6, §7

TYK2 = target: T4, TYK2 (Homo sapiens, UniProt P29597); experiment: Inhibition of TYK2 kinase, LANCE Ultra TR-FRET assay; settings: 4 nM TYK2, 2x ATP 30 μM, 15 min pre-incubation, 90 min reaction, 23° C., read-out: tyk IC50
T4 construct: purchased Invitrogen PR8440C
T4 sequence (P29597 whole entry): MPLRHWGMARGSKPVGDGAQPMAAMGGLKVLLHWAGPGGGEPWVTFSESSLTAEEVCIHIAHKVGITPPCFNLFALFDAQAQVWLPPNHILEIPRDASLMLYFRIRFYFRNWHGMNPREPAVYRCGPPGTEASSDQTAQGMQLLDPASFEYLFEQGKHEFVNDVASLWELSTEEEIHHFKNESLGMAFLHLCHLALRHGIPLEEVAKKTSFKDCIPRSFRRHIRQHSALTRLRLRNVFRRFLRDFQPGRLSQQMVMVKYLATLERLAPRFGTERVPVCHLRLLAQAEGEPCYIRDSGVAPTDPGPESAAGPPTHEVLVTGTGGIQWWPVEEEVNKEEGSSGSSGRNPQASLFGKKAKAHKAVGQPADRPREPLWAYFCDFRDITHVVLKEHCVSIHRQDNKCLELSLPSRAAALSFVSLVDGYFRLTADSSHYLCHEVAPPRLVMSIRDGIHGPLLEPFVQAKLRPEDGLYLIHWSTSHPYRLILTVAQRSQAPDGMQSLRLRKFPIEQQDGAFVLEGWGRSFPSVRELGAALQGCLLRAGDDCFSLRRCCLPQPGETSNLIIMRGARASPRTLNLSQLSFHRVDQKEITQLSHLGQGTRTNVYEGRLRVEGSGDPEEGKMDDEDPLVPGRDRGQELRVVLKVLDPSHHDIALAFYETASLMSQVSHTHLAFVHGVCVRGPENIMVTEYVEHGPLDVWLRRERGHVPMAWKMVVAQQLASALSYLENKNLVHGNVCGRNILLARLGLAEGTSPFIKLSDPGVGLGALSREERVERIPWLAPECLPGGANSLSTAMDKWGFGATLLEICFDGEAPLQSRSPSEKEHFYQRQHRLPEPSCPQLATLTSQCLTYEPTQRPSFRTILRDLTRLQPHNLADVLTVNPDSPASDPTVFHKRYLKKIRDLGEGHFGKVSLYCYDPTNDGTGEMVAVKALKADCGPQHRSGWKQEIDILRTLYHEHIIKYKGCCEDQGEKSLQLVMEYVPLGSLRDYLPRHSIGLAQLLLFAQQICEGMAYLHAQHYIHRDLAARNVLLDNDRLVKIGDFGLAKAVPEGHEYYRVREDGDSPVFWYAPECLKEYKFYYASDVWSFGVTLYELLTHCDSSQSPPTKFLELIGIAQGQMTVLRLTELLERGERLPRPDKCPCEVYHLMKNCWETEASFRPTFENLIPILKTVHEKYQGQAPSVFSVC
Method: as §1, §2, §3, §4, §5, §6, §7

T1 sequence (O60674 whole entry): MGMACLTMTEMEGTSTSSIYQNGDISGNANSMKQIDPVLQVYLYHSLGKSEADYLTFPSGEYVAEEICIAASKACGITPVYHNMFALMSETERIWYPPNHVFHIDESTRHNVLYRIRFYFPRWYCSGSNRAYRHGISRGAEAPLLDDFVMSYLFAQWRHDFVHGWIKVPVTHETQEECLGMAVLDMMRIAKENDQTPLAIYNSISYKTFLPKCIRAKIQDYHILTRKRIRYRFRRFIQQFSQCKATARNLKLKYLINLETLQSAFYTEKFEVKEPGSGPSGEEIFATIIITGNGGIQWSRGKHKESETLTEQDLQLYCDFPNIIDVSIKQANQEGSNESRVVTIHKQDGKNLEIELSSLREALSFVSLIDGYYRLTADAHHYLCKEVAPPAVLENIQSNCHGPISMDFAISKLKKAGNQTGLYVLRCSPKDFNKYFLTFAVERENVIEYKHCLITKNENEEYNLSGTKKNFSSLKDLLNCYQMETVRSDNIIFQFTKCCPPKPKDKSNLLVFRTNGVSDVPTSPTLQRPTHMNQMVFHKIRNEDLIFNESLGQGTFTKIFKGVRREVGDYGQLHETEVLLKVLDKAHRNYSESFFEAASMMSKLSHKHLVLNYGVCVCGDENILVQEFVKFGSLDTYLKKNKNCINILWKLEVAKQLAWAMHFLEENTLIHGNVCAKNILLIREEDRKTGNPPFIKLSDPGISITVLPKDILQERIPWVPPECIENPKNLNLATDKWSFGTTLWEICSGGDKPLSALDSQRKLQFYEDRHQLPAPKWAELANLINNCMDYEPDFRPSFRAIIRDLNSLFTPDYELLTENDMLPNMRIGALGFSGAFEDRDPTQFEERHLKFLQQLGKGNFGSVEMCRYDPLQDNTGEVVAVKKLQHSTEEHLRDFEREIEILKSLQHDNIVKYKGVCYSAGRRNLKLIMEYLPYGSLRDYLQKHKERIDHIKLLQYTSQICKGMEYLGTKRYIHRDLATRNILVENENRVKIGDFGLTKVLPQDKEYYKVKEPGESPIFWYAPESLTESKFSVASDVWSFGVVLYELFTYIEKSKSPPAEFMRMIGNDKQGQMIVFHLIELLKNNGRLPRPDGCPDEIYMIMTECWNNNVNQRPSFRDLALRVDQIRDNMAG

Row | Compound | IC50 (JAK2) | IC50 (JAK3) | IC50 (JAK1) | IC50 (TYK2)
1 | CCn1nc(C(=O)CC#N)c2c1CCN(c1ncnc3[nH]ccc13)C2 [Compound 119] | 500 to 2000 nM | 500 to 2000 nM | – | –
2 | O=C(NCCC(F)(F)F)n1ccc2c1CN(c1ncnc3[nH]ccc13)CC2 [Compound 132] | 500 to 2000 nM | 500 to 2000 nM | 100 to 500 nM | > 2000 nM
3 | O=C(NCCC(F)(F)F)c1noc2c1CN(c1ncnc3[nH]cnc13)CC2 [Compound 188] | 500 to 2000 nM | 100 to 500 nM | 100 to 500 nM | > 2000 nM
4 | O=C(NCCC(F)(F)F)c1nn(CCc2cccnc2)c2c1CN(c1ncnc3[nH]ccc13)CC2 [Compound 106] | > 2000 nM | 100 to 500 nM | > 2000 nM | > 2000 nM
5 | C=CCn1nc(C(=O)NCCC(F)(F)F)c2c1CCN(c1ncnc3[nH]ccc13)C2 [Compound 113] | 100 to 500 nM | < 100 nM | 100 to 500 nM | 500 to 2000 nM
6 | O=C(NCC(CO)C(F)(F)F)c1noc2c1CN(c1ncnc3[nH]ccc13)CC2 (centres unmarked) [Compound 151] | < 100 nM | < 100 nM | < 100 nM | 500 to 2000 nM
7 | CCS(=O)(=O)NC(=O)[C@H]1C[C@H](NC(=O)c2nn(C)c3c2CN(c2ncnc4[nH]ccc24)CC3)C1 [Compound 126] | 500 to 2000 nM | 100 to 500 nM | 100 to 500 nM | > 2000 nM
8 | O=C(NCCC(F)(F)F)c1nsc2c1CN(c1ncnc3[nH]ccc13)CC2 [Compound 141] | < 100 nM | < 100 nM | < 100 nM | 100 to 500 nM
9 | COC(=O)[C@H]1C[C@H](NC(=O)c2nn(C)c3c2CN(c2ncnc4[nH]ccc24)CC3)C1 [Compound 121] | > 2000 nM | > 2000 nM | > 2000 nM | > 2000 nM
10 | O=C(NCCC(F)(F)F)c1nn(CCCCc2ccccc2)c2c1CN(c1ncnc3[nH]ccc13)CC2 [Compound 116] | > 2000 nM | 100 to 500 nM | 100 to 500 nM | > 2000 nM
11 | O=C(NCCC(F)(F)F)C1=NOC2CN(c3ncnc4[nH]ccc34)CC12 (centres unmarked) [Compound 187] | 500 to 2000 nM | 100 to 500 nM | 100 to 500 nM | > 2000 nM
12 | FC(F)(F)CCNCc1n[nH]c2c1CN(c1ncnc3[nH]ccc13)CC2 [Compound 131] | 100 to 500 nM | < 100 nM | 100 to 500 nM | 100 to 500 nM
13 | O=C(NCCC(F)(F)F)c1nn(CCCc2ccccc2)c2c1CN(c1ncnc3[nH]ccc13)CC2 [Compound 115] | > 2000 nM | 100 to 500 nM | 500 to 2000 nM | > 2000 nM
14 | N#Cc1ccc(-c2nn(CCO)c3c2CN(c2ncnc4[nH]ccc24)CC3)cc1 [Compound 120] | 100 to 500 nM | 500 to 2000 nM | – | –

Other lines, results leading:

Row | IC50 (JAK2) | IC50 (JAK3) | IC50 (JAK1) | IC50 (TYK2) | Compound
15 | > 2000 nM | 100 to 500 nM | 500 to 2000 nM | > 2000 nM | CS(=O)(=O)N1CCCC1CCNC(=O)c1noc2c1CN(c1ncnc3[nH]ccc13)CC2 (centres unmarked) [Compound 164]
16 | 500 to 2000 nM | 100 to 500 nM | 100 to 500 nM | > 2000 nM | O=C(NCCC1CC(F)(F)C1)c1noc2c1CN(c1ncnc3[nH]ccc13)CC2 [Compound 148]
17 | 100 to 500 nM | < 100 nM | 100 to 500 nM | > 2000 nM | O=C(NCCC1CCCC1)c1noc2c1CN(c1ncnc3[nH]ccc13)CC2 [Compound 158]
18 | 100 to 500 nM | 100 to 500 nM | 100 to 500 nM | > 2000 nM | CSC(CNC(=O)c1noc2c1CN(c1ncnc3[nH]ccc13)CC2)C(F)(F)F (centres unmarked) [Compound 191]
19 | > 2000 nM | 500 to 2000 nM | 500 to 2000 nM | > 2000 nM | CN(C)C1CN(CCNC(=O)c2noc3c2CN(c2ncnc4[nH]ccc24)CC3)C1 [Compound 160]
20 | 100 to 500 nM | < 100 nM | < 100 nM | > 2000 nM | CNS(=O)(=O)CCNC(=O)c1noc2c1CN(c1ncnc3[nH]ccc13)CC2 [Compound 157]
21 | 500 to 2000 nM | 100 to 500 nM | 500 to 2000 nM | > 2000 nM | O=C(NCCC1(O)CC(F)(F)C1)c1noc2c1CN(c1ncnc3[nH]ccc13)CC2 [Compound 149]
22 | > 2000 nM | 100 to 500 nM | 500 to 2000 nM | > 2000 nM | O=C(NCCC(O)C1CCCC1)c1noc2c1CN(c1ncnc3[nH]ccc13)CC2 (centres unmarked) [Compound 159]
23 | 100 to 500 nM | < 100 nM | 100 to 500 nM | > 2000 nM | O=C(NCCc1ccccc1)c1noc2c1CN(c1ncnc3[nH]ccc13)CC2 [Compound 163]
24 | 100 to 500 nM | 100 to 500 nM | 100 to 500 nM | > 2000 nM | CN(C)S(=O)(=O)CCNC(=O)c1noc2c1CN(c1ncnc3[nH]ccc13)CC2 [Compound 156]
25 | 500 to 2000 nM | 100 to 500 nM | 500 to 2000 nM | > 2000 nM | CS(=O)(=O)N1CC(CNC(=O)c2noc3c2CN(c2ncnc4[nH]ccc24)CC3)C1 [Compound 168]
26 | 500 to 2000 nM | 100 to 500 nM | 100 to 500 nM | > 2000 nM | O=C(NCCCC1(O)CC1)c1noc2c1CN(c1ncnc3[nH]ccc13)CC2 [Compound 145]
27 | 100 to 500 nM | 100 to 500 nM | 100 to 500 nM | > 2000 nM | CS(=O)(=O)C(CCNC(=O)c1noc2c1CN(c1ncnc3[nH]ccc13)CC2)C(F)(F)F (centres unmarked) [Compound 170]
28 | 100 to 500 nM | < 100 nM | 100 to 500 nM | > 2000 nM | O=C(NC[C@@H]1CC[C@@H]1O)c1noc2c1CN(c1ncnc3[nH]ccc13)CC2 (relative stereo) [Compound 150-2]
29 | > 2000 nM | 100 to 500 nM | 500 to 2000 nM | > 2000 nM | O=C(NCCS(=O)(=O)N1CCCCC1)c1noc2c1CN(c1ncnc3[nH]ccc13)CC2 [Compound 136]
30 | 500 to 2000 nM | 500 to 2000 nM | 500 to 2000 nM | > 2000 nM | CN1CCCC1CCNC(=O)c1noc2c1CN(c1ncnc3[nH]ccc13)CC2 (centres unmarked) [Compound 155]
